Data taken from PMC10482942, “Novel quinazoline-1,2,3-triazole hybrids with anticancer and MET kinase targeting properties” (Scientific Reports, 2023).

Tests used:
TRKA (h) = molecular target: T1, TRKA (h) (Homo sapiens, UniProt P04629); assay: Radiometric kinase panel assay; format: biochemical; details: Km ATP
T1 construct: purchased Eurofins Discovery

Mia-Paca-2 cells = assay: SRB antiproliferative assay, monolayer culture; format: cell-based, human; details: Homo sapiens, MIA PaCa-2, 72 h, mean ± S.E.M.
Protocol: (§1) EBC-1 (human lung […] cells with MET gene amplification) and Mia-Paca-2 (human PDAC cells) were obtained from Japanese Collection of Research Bio Resources Cell Bank (JCRB). AsPC-1 (human PDAC), MKN-45 (human gastric adenocarcinoma cells with MET gene amplification), HT-29 (human colorectal adenocarcinoma), and K562 cells (human chronic myelogenous leukemia) were obtained from the Iranian Biological Resource Centre, Tehran, Iran. AsPC-1, EBC-1, MKN-45, and K562 cells were cultured in RPMI 1640 medium containing 10% heat-inactivated fetal bovine serum (FBS) and 1% penicillin/streptomycin. Mia-Paca-2 and HT-29 cells were grown in DMEM low glucose, containing 10% and 20% heat-inactivated FBS, resoectively and 100 U/ml penicillin/streptomycin. All cells were grown in monolayer cultures at 37 °C in a humidified incubator with 5% CO2.
(§2) Antiproliferative effects of synthetic compounds were evaluated by the SRB assay as described previously. Cancer cells were trypsinized, homogenous cell suspensions were prepared and 100 µl of cell suspensions were cultured at the densities of 5 × 10^4 cells/ml (for AsPC-1 and Mia-Paca-2), 4 × 10^4 cells/m (for EBC-1 and MKN-45), 3 × 10^4 cells/ml (for K562) and 1 × 10^4 cells/ml (for HT-29) in 96-well flat-bottom plates. After 24 h of incubation to allow cells to attach and resume optimal growth, the synthetic compounds dissolved in DMSO and diluted in the growth medium were added. One hundred µl of synthesized derivatives were added at different concentrations in triplicate and incubated for an additional 72 h at 37 °C. The cells were then fixed by gentle addition of 50 μl cold trichloroacetic acid (TCA) 50% (w/v, 10% final concentration) and incubated for 60 min at 4 °C. Then, the supernatant was discarded, and the plates were washed four times with distilled water and air dried. Afterwards, 100 μl of SRB solution 0.04% (w/v) dissolved in 1% acetic acid was added to each well, and plates were incubated for 15 min at room temperature. At the next step, the unbound dye was removed by washing four times with 1% acetic acid and the plates were air dried. The bound stain was finally solubilized with 150 μl of 10 mM Tris base solution, and the absorbance was recorded at a wavelength of 540 nm with a Bio-Tek microplate reader (Model Synergy HTX).

HT-29 cells = assay: SRB antiproliferative assay, monolayer culture; format: cell-based, human; details: Homo sapiens, HT-29, 72 h, mean ± S.E.M.
Protocol: as §1, §2

MKN-45 cells = assay: SRB antiproliferative assay, monolayer culture; format: cell-based, human; details: Homo sapiens, MKN-45, 72 h, mean ± S.E.M.
Protocol: as §1, §2

AsPC-1 cells [1] = assay: SRB antiproliferative assay, monolayer culture; format: cell-based, human; details: Homo sapiens, ASPC1, 72 h, mean ± S.E.M.
Protocol: as §1, §2

K562 cells = assay: SRB antiproliferative assay, monolayer culture; format: cell-based, human; details: Homo sapiens, K562, 72 h, mean ± S.E.M.
Protocol: as §1, §2

EBC-1 cells = assay: SRB antiproliferative assay, monolayer culture; format: cell-based, human; details: Homo sapiens, EBC-1, 72 h, mean ± S.E.M.
Protocol: as §1, §2

AsPC-1 cells [2] = assay: Apoptosis induction, annexin V-FITC/PI flow cytometry; format: cell-based, human; details: 10 μM, 48 h; for Late apoptosis: untreated 4.8%; for Early apoptosis: untreated 7.6%; for Percentage of total apoptosis: untreated 12.4%
Protocol: The ability of apoptosis induction of synthetic compounds was evaluated by FACS analysis with Annexin V-FITC/propidiuim iodide (PI) staining kit (BD Pharmingen, San Diego, CA, USA). AsPC-1 cells were cultured in 6-well plates at a density of 1 × 10^5 cells/ml. After 24 h, the synthesized derivatives at different concentrations were added and incubated for 48 h. After addition of trypsin to each well, the cells were harvested, transferred to 1.5 ml tubes and washed twice with PBS. At the final step, the cells were stained with Annexin V-FITC (5 µl) and PI (5 µl), followed by analysis by a FACS Calibur flow cytometer (Becton Dickinson, Mountain View, CA, USA). The effects of synthetic derivatives on the apoptosis rate were evaluated based on the fluorescence signal of 20,000 events.

FLT3 (h) = molecular target: T2, FLT3 (h) (Homo sapiens, UniProt P36888); assay: Radiometric kinase panel assay; format: biochemical; details: Km ATP
T2 construct: purchased Eurofins Discovery
T2 sequence (P36888 27-993): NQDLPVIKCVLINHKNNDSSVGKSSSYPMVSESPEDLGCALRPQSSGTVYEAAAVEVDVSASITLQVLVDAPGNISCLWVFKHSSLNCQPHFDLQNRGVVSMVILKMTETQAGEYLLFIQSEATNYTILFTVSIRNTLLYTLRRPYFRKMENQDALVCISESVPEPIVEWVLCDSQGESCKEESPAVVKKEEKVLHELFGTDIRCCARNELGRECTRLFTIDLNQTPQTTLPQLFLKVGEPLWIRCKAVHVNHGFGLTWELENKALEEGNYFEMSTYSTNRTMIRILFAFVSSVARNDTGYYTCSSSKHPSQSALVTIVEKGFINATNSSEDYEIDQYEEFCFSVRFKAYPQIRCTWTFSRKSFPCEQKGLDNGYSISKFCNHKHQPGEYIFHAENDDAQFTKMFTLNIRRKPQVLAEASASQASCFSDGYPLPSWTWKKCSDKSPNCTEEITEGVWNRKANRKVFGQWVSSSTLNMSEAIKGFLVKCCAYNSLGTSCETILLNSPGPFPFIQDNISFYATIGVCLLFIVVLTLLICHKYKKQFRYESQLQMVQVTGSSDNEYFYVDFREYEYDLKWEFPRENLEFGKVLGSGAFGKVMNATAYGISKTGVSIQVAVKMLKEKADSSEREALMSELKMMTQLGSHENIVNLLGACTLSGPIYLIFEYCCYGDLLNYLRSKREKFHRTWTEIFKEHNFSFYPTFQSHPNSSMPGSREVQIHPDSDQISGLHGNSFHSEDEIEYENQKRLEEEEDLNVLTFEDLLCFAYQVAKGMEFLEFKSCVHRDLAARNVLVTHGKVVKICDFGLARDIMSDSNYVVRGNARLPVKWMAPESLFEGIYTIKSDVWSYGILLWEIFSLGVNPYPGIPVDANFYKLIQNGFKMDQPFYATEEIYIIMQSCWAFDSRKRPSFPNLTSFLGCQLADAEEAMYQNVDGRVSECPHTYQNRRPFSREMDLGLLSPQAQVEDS

MET kinase = molecular target: T3, MET kinase (Homo sapiens, UniProt P08581); assay: MET kinase enzymatic HTRF assay; format: biochemical
T3 construct: purchased Millipore
T3 sequence (P08581 25-1390): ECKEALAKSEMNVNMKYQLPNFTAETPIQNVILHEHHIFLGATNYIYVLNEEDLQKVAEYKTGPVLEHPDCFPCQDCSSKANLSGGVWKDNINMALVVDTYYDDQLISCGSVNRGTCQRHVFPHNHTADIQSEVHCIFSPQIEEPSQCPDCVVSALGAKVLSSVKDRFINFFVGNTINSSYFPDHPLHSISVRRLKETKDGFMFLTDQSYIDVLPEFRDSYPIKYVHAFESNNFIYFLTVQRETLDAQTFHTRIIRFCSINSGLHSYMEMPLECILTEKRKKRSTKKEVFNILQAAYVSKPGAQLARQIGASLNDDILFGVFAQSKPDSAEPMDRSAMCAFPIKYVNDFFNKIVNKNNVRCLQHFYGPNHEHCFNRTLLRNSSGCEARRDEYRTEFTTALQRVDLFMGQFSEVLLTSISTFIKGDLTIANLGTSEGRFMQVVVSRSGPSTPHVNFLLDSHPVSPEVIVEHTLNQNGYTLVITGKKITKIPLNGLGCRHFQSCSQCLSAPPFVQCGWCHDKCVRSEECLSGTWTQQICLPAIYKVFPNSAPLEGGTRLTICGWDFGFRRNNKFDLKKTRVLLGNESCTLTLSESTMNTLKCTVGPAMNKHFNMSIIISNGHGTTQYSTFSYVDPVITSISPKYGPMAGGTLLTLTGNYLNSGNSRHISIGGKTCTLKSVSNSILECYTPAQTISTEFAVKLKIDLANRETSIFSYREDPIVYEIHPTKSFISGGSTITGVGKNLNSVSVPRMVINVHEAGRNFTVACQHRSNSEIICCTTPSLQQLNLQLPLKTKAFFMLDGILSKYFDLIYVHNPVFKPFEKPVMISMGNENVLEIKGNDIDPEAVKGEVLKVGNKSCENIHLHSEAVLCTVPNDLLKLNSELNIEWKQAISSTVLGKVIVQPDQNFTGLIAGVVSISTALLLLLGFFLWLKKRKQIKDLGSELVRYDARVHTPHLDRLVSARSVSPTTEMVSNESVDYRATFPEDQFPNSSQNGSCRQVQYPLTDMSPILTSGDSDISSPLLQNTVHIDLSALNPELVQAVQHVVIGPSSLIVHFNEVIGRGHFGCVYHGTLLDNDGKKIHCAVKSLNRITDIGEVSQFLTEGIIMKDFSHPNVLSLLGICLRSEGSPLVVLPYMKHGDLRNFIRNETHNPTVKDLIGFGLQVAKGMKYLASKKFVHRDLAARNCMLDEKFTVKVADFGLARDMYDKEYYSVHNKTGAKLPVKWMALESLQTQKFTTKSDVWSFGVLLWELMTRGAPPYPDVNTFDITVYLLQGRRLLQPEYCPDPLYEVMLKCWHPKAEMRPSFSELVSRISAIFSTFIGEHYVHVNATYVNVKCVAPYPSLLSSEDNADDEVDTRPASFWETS
Protocol: HTRF assay detects the phosphorylation level of a biotinylated tyrosine kinase substrate peptide (TK substrate) by MET kinase. The HTRF® KinEASE™ TK kit and MET kinase were purchased from Cisbio and Millipore, respectively. The optimal conditions for enzyme, substrate, ATP concentrations, and enzymatic reaction times were set.
In order to prepare the test compounds, after dissolving in DMSO, they were diluted in the reaction buffer containing 50 mM HEPES pH 7.0, 0.1 mM sodium orthovanadate, 0.01% BSA, 0.02% NaN3, 10 mM MgCl2, 5 mM MnCl2, 2 mM DTT. […] Finally, the Time Resolved-Fluorescence Resonance Energy Transfer (TR-FRET) signal was measured after an hour of incubation at room temperature.
The following equations were used to determine the inhibition rate (%): Ratio665/620=Emission665 nm/Emission620nm ΔR=Ratio Sample665/620-Ratio Background665/620∗100/Ratio Background665/620 Inhibition%=ΔRControl-ΔRSample∗100/ΔRControl
Background samples contained all reagents except for the enzyme. Control wells contained the same amount of DMSO contained in the sample.

ABL (h) = molecular target: T4, ABL (h) (Homo sapiens, UniProt P00519); assay: Radiometric kinase panel assay; format: biochemical; details: Km ATP
T4 construct: purchased Eurofins Discovery
T4 sequence (P00519 whole entry): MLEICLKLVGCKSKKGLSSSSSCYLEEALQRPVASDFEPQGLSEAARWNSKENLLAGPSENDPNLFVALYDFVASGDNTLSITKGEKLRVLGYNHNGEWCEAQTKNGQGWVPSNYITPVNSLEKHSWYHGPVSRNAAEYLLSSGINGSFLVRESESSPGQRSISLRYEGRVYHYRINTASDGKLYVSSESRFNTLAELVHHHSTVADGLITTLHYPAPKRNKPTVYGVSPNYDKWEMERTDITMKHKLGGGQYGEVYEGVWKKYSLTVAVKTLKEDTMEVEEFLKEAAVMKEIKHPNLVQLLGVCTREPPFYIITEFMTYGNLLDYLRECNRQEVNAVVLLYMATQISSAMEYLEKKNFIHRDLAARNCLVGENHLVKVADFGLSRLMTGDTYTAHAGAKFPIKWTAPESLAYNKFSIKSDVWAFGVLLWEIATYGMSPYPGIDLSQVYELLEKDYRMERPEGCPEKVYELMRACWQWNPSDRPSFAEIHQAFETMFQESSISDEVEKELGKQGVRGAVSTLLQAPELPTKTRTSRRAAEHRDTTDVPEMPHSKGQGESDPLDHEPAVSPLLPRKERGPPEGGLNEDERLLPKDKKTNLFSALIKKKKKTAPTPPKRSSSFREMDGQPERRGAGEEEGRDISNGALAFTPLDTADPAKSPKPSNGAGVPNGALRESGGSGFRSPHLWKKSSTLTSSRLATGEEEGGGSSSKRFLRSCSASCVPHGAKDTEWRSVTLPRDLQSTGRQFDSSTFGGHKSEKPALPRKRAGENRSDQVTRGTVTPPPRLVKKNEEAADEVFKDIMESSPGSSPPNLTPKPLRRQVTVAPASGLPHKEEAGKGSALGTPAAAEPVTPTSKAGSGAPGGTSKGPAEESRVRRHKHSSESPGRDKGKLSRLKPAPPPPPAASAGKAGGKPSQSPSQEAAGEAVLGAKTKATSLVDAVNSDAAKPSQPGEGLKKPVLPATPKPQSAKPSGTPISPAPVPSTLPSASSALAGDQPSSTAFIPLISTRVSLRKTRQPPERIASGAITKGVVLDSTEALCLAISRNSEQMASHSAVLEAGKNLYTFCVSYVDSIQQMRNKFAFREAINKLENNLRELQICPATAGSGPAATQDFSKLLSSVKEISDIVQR

T1 sequence (P04629 33-796): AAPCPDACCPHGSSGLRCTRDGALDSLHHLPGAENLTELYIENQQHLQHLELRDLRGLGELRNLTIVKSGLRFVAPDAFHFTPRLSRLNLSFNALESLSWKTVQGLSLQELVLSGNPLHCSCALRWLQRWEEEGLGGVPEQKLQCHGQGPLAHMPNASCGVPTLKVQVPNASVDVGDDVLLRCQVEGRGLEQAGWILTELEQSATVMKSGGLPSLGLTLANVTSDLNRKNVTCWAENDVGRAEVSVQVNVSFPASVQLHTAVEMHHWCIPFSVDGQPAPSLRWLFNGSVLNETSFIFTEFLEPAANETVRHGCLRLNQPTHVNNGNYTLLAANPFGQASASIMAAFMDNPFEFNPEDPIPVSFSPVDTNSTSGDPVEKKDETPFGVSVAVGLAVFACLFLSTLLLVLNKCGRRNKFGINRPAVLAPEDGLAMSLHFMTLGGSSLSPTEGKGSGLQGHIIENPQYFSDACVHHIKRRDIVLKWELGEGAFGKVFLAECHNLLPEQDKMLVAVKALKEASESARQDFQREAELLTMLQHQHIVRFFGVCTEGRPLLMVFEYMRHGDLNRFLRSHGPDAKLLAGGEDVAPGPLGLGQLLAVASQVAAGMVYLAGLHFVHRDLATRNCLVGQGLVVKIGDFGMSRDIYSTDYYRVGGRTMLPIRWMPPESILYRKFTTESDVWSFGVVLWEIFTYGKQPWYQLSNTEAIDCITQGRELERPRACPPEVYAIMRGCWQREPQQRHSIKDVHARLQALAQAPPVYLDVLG

Row | inhibition at 10 µM (TRKA (h)) [%] | IC50 (Mia-Paca-2 cells) [µM] | IC50 (HT-29 cells) [µM] | IC50 (MKN-45 cells) [µM] | IC50 (AsPC-1 cells [1]) [µM] | IC50 (K562 cells) [µM] | inhibition at 10 µM (FLT3 (h)) [%] | IC50 (MET kinase; HTRF assay, read-out: MET kinase inhibition IC50) [µM] | inhibition at 10 µM (ABL (h)) [%] | inhibition at 10 µM (MET kinase; at 10 μM, mean ± S.E.M., read-out: Inhibitory effect against MET kinase) [%] | inhibition at 25 µM (MET kinase; at 25 μM, mean ± S.E.M., read-out: Inhibitory effect against MET kinase) [%] | inhibition at 50 µM (MET kinase; at 50 μM, mean ± S.E.M., read-out: Inhibitory effect against MET kinase) [%] | SMILES | IC50 (EBC-1 cells) [µM] | Late apoptosis (AsPC-1 cells [2]) [%] | Early apoptosis (AsPC-1 cells [2]) [%] | Percentage of total apoptosis (AsPC-1 cells [2]) [%]
1 | 13 | 25.6 ± 2.4 | 21 ± 4.7 | 22 ± 4.8 | 15.3 ± 2.3 | 31.5 ± 6.4 | 8 | 36 ± 9.5 | 8 | – | – | – | Cc1ccc(Cn2cc(COc3ccc(C=NNc4ncnc5ccccc45)cc3)nn2)cc1 [Compound 8c, 2-(4-((1-(4-Methylbenzyl)-1H-1,2,3-triazol-4-yl)methoxy)benzylidene)-1-(quinazolin-4-yl)hydrazine] | 19 ± 0.7 | 10.7 | 15.5 | 26.1
2 | 28 | 11.5 ± 0.8 | 8.6 ± 1.3 | 12 ± 3.9 | 9.7 ± 1.9 | 34.4 ± 6.4 | 18 | – | 17 | 22 ± 7.4 | 25.7 ± 4.7 | 32.9 ± 2.2 | CC(C)(C)c1ccc(Cn2cc(COc3ccc(C=NNc4ncnc5ccccc45)cc3)nn2)cc1 [Compound 8h, 2-(4-((1-(4-Tert-butylbenzyl)-1H-1,2,3-triazol-4-yl)methoxy)benzylidene)-1-(quinazolin-4-yl)hydrazine] | 6.1 ± 1 | 9.6 | 15.8 | 25.4
